This passage reports T/C results from PubChem BioAssay AID256 (DTP/NCI, 2004).

In the assay the test system is CD2F1 mice, L1210 leukemia ip, survival T/C. In words: NCI In Vivo Anticancer Drug Screen. Data for tumor model L1210 Leukemia (intraperitoneal) in CD2F1 (CDF1) mice. The following applies: higher = longer survival. The gist of the method:
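Ratio T/C, where T is the treated-group value and C the vehicle-dosed control value, from mice implanted with a transplantable tumor.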

The mark [1] stands for this setting: endpoint: mean survival time, dose: 100.0 mg/kg/injection, schedule: Q01DX009 (ip), vehicle: saline with Tween-80.
[2] abbreviates: endpoint: mean survival time, dose: 100.0 mg/kg/injection, schedule: Q04DX003 (ip), vehicle: saline with Tween-80.
[3] abbreviates: endpoint: mean survival time, dose: 200.0 mg/kg/injection, schedule: Q01DX009 (ip), vehicle: saline with Tween-80.
[4] abbreviates: endpoint: mean survival time, dose: 200.0 mg/kg/injection, schedule: Q04DX003 (ip), vehicle: saline with Tween-80.
Where [5] appears, read: endpoint: mean survival time, dose: 400.0 mg/kg/injection, schedule: Q04DX003 (ip), vehicle: saline with Tween-80.
Where [6] appears, read: endpoint: mean survival time, dose: 100.0 mg/kg/injection, schedule: Q01DX001 (ip), vehicle: saline.
Where [7] appears, read: endpoint: mean survival time, dose: 100.0 mg/kg/injection, schedule: Q04DX003 (ip), vehicle: saline.
Where [8] appears, read: endpoint: mean survival time, dose: 200.0 mg/kg/injection, schedule: Q01DX001 (ip), vehicle: saline.
Setting [9] is: endpoint: mean survival time, dose: 200.0 mg/kg/injection, schedule: Q04DX003 (ip), vehicle: saline.
Setting [10] is: endpoint: mean survival time, dose: 400.0 mg/kg/injection, schedule: Q04DX003 (ip), vehicle: saline.
Where [11] appears, read: endpoint: mean survival time, dose: 400.0 mg/kg/injection, schedule: Q01DX009 (ip), vehicle: saline with Tween-80.

Several values for one entry are separate records, joined by “and”; a condition that tells them apart may be missing. Identical values can stand only once. Inconclusive results and toxic doses are left out.

With `Cc1ccc(-n2nc(C3OCC(O)C3O)c3nc4cc(C)c(C)cc4nc32)cc1` (configuration not stated), the T/C is, setting by setting: (endpoint: median survival time, dose: 10.0 mg/kg/injection, schedule: Q01DX005 (ip), vehicle: distilled water + Tween-80) 98 % of control; (endpoint: median survival time, dose: 20.0 mg/kg/injection, schedule: Q01DX005 (ip), vehicle: distilled water + Tween-80) 97 % of control; (endpoint: median survival time, dose: 40.0 mg/kg/injection, schedule: Q01DX005 (ip), vehicle: distilled water + Tween-80) 103 % of control; (endpoint: median survival time, dose: 80.0 mg/kg/injection, schedule: Q01DX005 (ip), vehicle: distilled water + Tween-80) 97 % of control; (endpoint: median survival time, dose: 160.0 mg/kg/injection, schedule: Q01DX005 (ip), vehicle: distilled water + Tween-80) 98 % of control.
In the case of `Nc1cccc2nc3ccccc3cc12`, the T/C is, setting by setting: under setting [1], 93 % of control; under setting [2], 92 % of control; under setting [3], 95 % of control; under setting [4], 94 % of control; under setting [5], 91 % of control.
Regarding `COc1ccc(CC2C(=O)NC(C)C(=O)N(C)C3Cc4ccc(cc4)Oc4cc(ccc4O)CC(C(=O)NC(C)C(=O)NC(C)C(=O)N2C)N(C)C3=O)cc1` (configuration not stated), the T/C was 112 % of control (endpoint: mean survival time, dose: 1.0 mg/kg/injection, schedule: Q01DX009 (ip), vehicle: saline with Tween-80); 112 % of control (endpoint: mean survival time, dose: 2.0 mg/kg/injection, schedule: Q01DX009 (ip), vehicle: saline with Tween-80); 116 % of control (endpoint: mean survival time, dose: 4.0 mg/kg/injection, schedule: Q01DX009 (ip), vehicle: saline with Tween-80); 122 % of control (endpoint: mean survival time, dose: 16.0 mg/kg/injection, schedule: Q01DX009 (ip), vehicle: saline with Tween-80); 122 % of control (endpoint: median survival time, dose: 2.0 mg/kg/injection, schedule: Q01DX009 (ip), vehicle: saline with Tween-80); 124 % of control (endpoint: median survival time, dose: 4.0 mg/kg/injection, schedule: Q01DX009 (ip), vehicle: saline with Tween-80). The T/C (endpoint: median survival time, dose: 16.0 mg/kg/injection, schedule: Q01DX009 (ip), vehicle: saline with Tween-80) was 111 % of control.
`CC(=O)CC(=O)c1ccccc1.CC(=O)CC(=O)c1ccccc1.CC(=O)CC(=O)c1ccccc1.[Tb]`: the T/C is, setting by setting: under setting [2], 93 % of control; under setting [4], 91 % of control; under setting [5], 88 % of control.
As to `CCCCCCCCCCNCCS`, the T/C is, setting by setting: (endpoint: mean survival time, dose: 5.0 mg/kg/injection, schedule: Q01DX009 (ip), vehicle: saline with Tween-80) 104 % of control; (endpoint: mean survival time, dose: 20.0 mg/kg/injection, schedule: Q01DX009 (ip), vehicle: saline with Tween-80) 93 % of control.
`CCOC(=O)C(CC)(OC(C)=O)C(=O)C[n+]1ccccc1` (configuration not stated): the T/C reads like this: under setting [6], 108 % of control; under setting [7], 101 % of control; under setting [8], 106 % of control; under setting [9], 101 % of control; (endpoint: mean survival time, dose: 400.0 mg/kg/injection, schedule: Q01DX001 (ip), vehicle: saline) 106 % of control; under setting [10], 101 % of control.
Regarding `COC(OC)c1ccc(Cl)nc1`, the T/C reads like this: (endpoint: mean survival time, dose: 100.0 mg/kg/injection, schedule: Q01DX001 (ip), vehicle: saline with Tween-80) 98 % of control; under setting [1], 96 % of control; (endpoint: mean survival time, dose: 200.0 mg/kg/injection, schedule: Q01DX001 (ip), vehicle: saline with Tween-80) 101 % of control; under setting [3], 94 % of control; (endpoint: mean survival time, dose: 400.0 mg/kg/injection, schedule: Q01DX001 (ip), vehicle: saline with Tween-80) 101 % of control; under setting [11], 92 % of control.
As for `Nc1ccn(C2CC(N)C(CO)O2)c(=O)n1` (configuration not stated), the T/C by setting is: (endpoint: median survival time, dose: 5.0 mg/kg/injection, schedule: Q06HX018 (ip), vehicle: water) 150 % of control; (endpoint: median survival time, dose: 10.0 mg/kg/injection, schedule: Q06HX018 (ip), vehicle: water) 154 % of control and 162 % of control; (endpoint: median survival time, dose: 20.0 mg/kg/injection, schedule: Q06HX018 (ip), vehicle: water) 198 % of control and 200 % of control; (endpoint: median survival time, dose: 40.0 mg/kg/injection, schedule: Q06HX018 (ip), vehicle: water) 152 % of control and 174 % of control.
As to `CC(C)N(C(=S)S)C(C)C`, the T/C reads like this: under setting [2], 101 % of control; under setting [4], 100 % of control; under setting [5], 92 % of control.
As to `Cc1ccc([N+](=O)[O-])cc1NC(=O)NNC(=O)CNC(=O)NCc1ccco1`, the T/C runs as follows: under setting [1], 91 % of control; under setting [3], 89 % of control; under setting [11], 97 % of control.
With `CSC(N)=Nc1ccc(C(=O)O)cc1`, the T/C by setting is: under setting [2], 100 % of control; under setting [4], 94 % of control; under setting [5], 94 % of control.
In the case of `CC1=NN(c2cccc(S(=O)(=O)O)c2)C(=O)C1N=Nc1cc(Cl)cc(S(=O)(=O)O)c1O.CC1=NN(c2cccc(S(=O)(=O)O)c2)C(=O)C1N=Nc1cc(Cl)cc(S(=O)(=O)O)c1O.[Cr]` (configuration not stated), the T/C reads like this: (endpoint: median survival time, dose: 25.0 mg/kg/injection, schedule: Q01DX009 (ip), vehicle: saline) 113 % of control; (endpoint: median survival time, dose: 50.0 mg/kg/injection, schedule: Q01DX009 (ip), vehicle: saline) 107 % of control; (endpoint: median survival time, dose: 100.0 mg/kg/injection, schedule: Q01DX009 (ip), vehicle: saline) 101 % of control; (endpoint: median survival time, dose: 200.0 mg/kg/injection, schedule: Q01DX009 (ip), vehicle: saline) 118 % of control; (endpoint: median survival time, dose: 400.0 mg/kg/injection, schedule: Q01DX009 (ip), vehicle: saline) 120 % of control.
With `CC(=O)OC1CCCCC1OC(C)=O` (configuration not stated), the T/C is 92 % of control (endpoint: mean survival time, dose: 50.0 mg/kg/injection, schedule: Q01DX009 (ip), vehicle: saline with Tween-80); 92 % of control under setting [1]; 103 % of control under setting [3].
Consider `O=C(O)C(c1ccccc1)C(F)(F)F` (configuration not stated), for which the T/C reads like this: under setting [1], 95 % of control; under setting [2], 108 % of control; under setting [3], 105 % of control; under setting [4], 94 % of control; under setting [11], 94 % of control; under setting [5], 92 % of control.
Turning to `CC(=O)C(C)OS(C)(=O)=O` (configuration not stated), the T/C by setting is: (endpoint: mean survival time, dose: 25.0 mg/kg/injection, schedule: Q04DX003 (ip), vehicle: saline with Tween-80) 108 % of control; (endpoint: mean survival time, dose: 50.0 mg/kg/injection, schedule: Q04DX003 (ip), vehicle: saline with Tween-80) 108 % of control; under setting [2], 109 % of control; under setting [4], 120 % of control.
Turning to `O=C(CCl)NC(=O)CCl`, the T/C is 90 % of control (endpoint: mean survival time, dose: 25.0 mg/kg/injection, schedule: Q01DX009 (ip), vehicle: saline sonified); 104 % of control (endpoint: mean survival time, dose: 50.0 mg/kg/injection, schedule: Q01DX009 (ip), vehicle: saline sonified); 90 % of control (endpoint: mean survival time, dose: 100.0 mg/kg/injection, schedule: Q01DX009 (ip), vehicle: saline sonified).
Take `CS(=O)(=O)OCC(=O)NCCCCNC(=O)COS(C)(=O)=O`: the T/C is, setting by setting: under setting [6], 101 % of control; under setting [8], 101 % of control.
For the compound `COc1ccc(/C=N\N=C\c2ccc(OC)c(OC)c2)cc1OC`, the T/C by setting is: under setting [7], 105 % of control; under setting [9], 100 % of control; under setting [10], 94 % of control.
Turning to `CCCCNC1=C(C)C(=O)C2=C(C1=O)C(COC(N)=O)C1(OC)C3NC3CN21` (configuration not stated), the T/C is 102 % of control (endpoint: mean survival time, dose: 6.3 mg/kg/injection, schedule: Q01DX001 (ip), vehicle: carboxymethylcellulose (CMC)); 118 % of control (endpoint: mean survival time, dose: 9.5 mg/kg/injection, schedule: Q01DX001 (ip), vehicle: carboxymethylcellulose (CMC)); 102 % of control (endpoint: mean survival time, dose: 14.25 mg/kg/injection, schedule: Q01DX001 (ip), vehicle: carboxymethylcellulose (CMC)).
Consider `CC1OC1C(=O)C1(O)C(C)C(O)C23OC2(C(O)c2c(O)cccc2C3=O)C1O` (configuration not stated), for which the T/C reads like this: (endpoint: mean survival time, dose: 0.5 mg/kg/injection, schedule: Q01DX009 (ip), vehicle: Klucel (hydroxypropylcellulose) (HPC)) 98 % of control and 101 % of control; (endpoint: mean survival time, dose: 1.0 mg/kg/injection, schedule: Q01DX009 (ip), vehicle: Klucel (hydroxypropylcellulose) (HPC)) 98 % of control and 102 % of control (2×); (endpoint: mean survival time, dose: 2.0 mg/kg/injection, schedule: Q01DX009 (ip), vehicle: Klucel (hydroxypropylcellulose) (HPC)) 104 % of control and 105 % of control and 107 % of control; (endpoint: mean survival time, dose: 4.0 mg/kg/injection, schedule: Q01DX009 (ip), vehicle: Klucel (hydroxypropylcellulose) (HPC)) 114 % of control and 102 % of control and 103 % of control; (endpoint: mean survival time, dose: 8.0 mg/kg/injection, schedule: Q01DX009 (ip), vehicle: Klucel (hydroxypropylcellulose) (HPC)) 120 % of control and 104 % of control and 109 % of control; (endpoint: mean survival time, dose: 16.0 mg/kg/injection, schedule: Q01DX009 (ip), vehicle: Klucel (hydroxypropylcellulose) (HPC)) 104 % of control.
